The structures appear in SMILES notation. In brackets after ≈: the same amount, converted by molar mass. Where only a bound is given, the exact number is not on record here.

The values below come from paper PMC7582516, “A Novel Series of [1,2,4]Triazolo[4,3-a]Pyridine Sulfonamides as Potential Antimalarial Agents: In Silico Studies, Synthesis and In Vitro Evaluation” (Molecules, 2020).

Data set [1] deals with MRC-5 SV2 cells. Description: Cytotoxicity assay (resazurin). The conditions noted are these: Homo sapiens, MRC-5 fibroblast cytotoxicity, 72 h. The format is cell-based. As to the method: Stock solutions were prepared in 100% DMSO at 20 mg/mL just prior to screening. […] Reference drugs were either obtained from the fine chemical supplier Sigma or from WHO-TDR. The integrated panel of microbial screens and standard screening methodologies was adopted as previously described. All assays were performed in triplicate at the Laboratory of Microbiology, Parasitology and Hygiene at the University of Antwerp, Belgium. […] The selectivity antiprotozoal potential was assessed by simultaneous evaluation of cytotoxicity on a fibroblast (MRC-5) cell line. […] Cell viability was assessed fluorimetrically after 4 h of addition of resazurin. Fluorescence was measured (excitation 550 nm, emission 590 nm) and the results were expressed as % reduction in cell viability compared to control.
A general note: Resazurin is reduced to fluorescent resorufin, in cell work by metabolically active cells.

Data set [2] is described as follows: Solubility in DMSO/Water (practical data). Type of data set: physicochemical.

`CC1CCN(S(=O)(=O)c2ccc3nn(Cc4ccccc4F)c(=O)n3c2)CC1` [Compound 13h, 2-(2-Fluorobenzyl)-6-(4-methylpiperidin-1-ylsulfonyl)-[1,2,4]triazolo[4,3-a]pyridin-3(2H)-one] came in with a melting point of 150 to 151 °C. The compound also came in with an IC50 in data set [1] greater than 64 µg/mL. Regarding `CCc1nnc2ccc(S(=O)(=O)N(Cc3cccc(F)c3)c3ccc(OC)cc3)cn12` [Compound 8e, 3-Ethyl-N-(3-fluorobenzyl)-N-(4-methoxyphenyl)-[1,2,4]triazolo[4,3-a]pyridine-6-sulfonamide], in data set [2], the Solubility entry is “moderately soluble”. For the same compound, inhibition in data set [1] was half-maximal at 18.2 µg/mL (≈ 41.3 µM) (IC50). As to `O=C1CCCN1c1ccc(Cn2nc3c(S(=O)(=O)N4CCOCC4)cccn3c2=O)cc1` [Compound 13e, 8-(Morpholinosulfonyl)-2-[4-(2-oxopyrrolidin-1-yl)benzyl]-[1,2,4]triazolo[4,3-a]pyridin-3(2H)-one], the melting point is 258 to 260 °C (dec.). Further, the IC50 in data set [1] is greater than 64 µg/mL. In the same order, the values of `O=S(=O)(c1cccn2c(SCc3ccccc3Cl)nnc12)N1CCCC1` [Compound 15e, 3-(2-Chlorobenzylthio)-8-(pyrrolidin-1-ylsulfonyl)-[1,2,4]triazolo[4,3-a]pyridine] are 164 to 166 °C and greater than 64 µg/mL. For `O=c1n(Cc2cc(F)cc(F)c2)nc2c(S(=O)(=O)N3CCCCC3)cccn12` [Compound 13c, 2-(3,5-Difluorobenzyl)-8-(piperidin-1-ylsulfonyl)-[1,2,4]triazolo[4,3-a]pyridin-3(2H)-one], in that order: 221 to 222 °C and greater than 64 µg/mL. In the same order, the values of `O=c1n(Cc2ccc(Cl)cc2)nc2ccc(S(=O)(=O)N3CCCCC3)cn12` [Compound 13f, 2-(4-Chlorobenzyl)-6-(piperidin-1-ylsulfonyl)-[1,2,4]triazolo[4,3-a]pyridin-3(2H)-one] are 173 to 174 °C and greater than 64 µg/mL. Turning to `COc1ccc(CSc2nnc3c(S(=O)(=O)N4CCCCC4)cccn23)cc1` [Compound 15a, 3-(4-Methoxybenzylthio)-8-(piperidin-1-ylsulfonyl)-[1,2,4]triazolo[4,3-a]pyridine], the melting point was 169 to 170 °C. The compound also displayed an IC50 in data set [1] greater than 64 µg/mL. Take `O=c1n(Cc2ccccc2Cl)nc2c(S(=O)(=O)N3CCOCC3)cccn12` [Compound 13d, 2-(2-Chlorobenzyl)-8-(morpholinosulfonyl)-[1,2,4]triazolo[4,3-a]pyridin-3(2H)-one]: in data set [1], the IC50 was greater than 64 µg/mL. `Cc1cccc(Cn2nc3ccc(S(=O)(=O)N4CCC(C)CC4)cn3c2=O)c1` [Compound 13g, 2-(3-Methylbenzyl)-6-(4-methylpiperidin-1-ylsulfonyl)-[1,2,4]triazolo[4,3-a]pyridin-3(2H)-one] gave a melting point of 145 to 146 °C. The IC50 in data set [1] is greater than 64 µg/mL. In the same order, the values of `O=c1n(Cc2ccc(F)cc2Cl)nc2ccc(S(=O)(=O)N3CCSCC3)cn12` [Compound 13j, 2-(2-Chloro-4-fluorobenzyl)-6-(thiomorpholinosulfonyl)-[1,2,4]triazolo[4,3-a]pyridin-3(2H)-one] are 190 to 191 °C and greater than 64 µg/mL. As to `O=c1n(Cc2ccc3c(c2)OCO3)nc2c(S(=O)(=O)N3CCCCC3)cccn12` [Compound 13b, 2-(Benzo[d][1,3]dioxol-5-ylmethyl)-8-(piperidin-1-ylsulfonyl)-[1,2,4]triazolo[4,3-a]pyridin-3(2H)-one], the melting point fell in the range of 160 to 161 °C. The IC50 in data set [1] is greater than 64 µg/mL. In the same order, the values of `COC(=O)c1ccc(CN(c2cccc(C)c2)S(=O)(=O)c2ccc3nnc(C)n3c2)o1` [Compound 8d, Methyl 5-{[3-methyl-N-(3-methylphenyl)-[1,2,4]triazolo[4,3-a]pyridine-6-sulfonamido]methyl}furan-2-carboxylate] are 152 to 154 °C and greater than 64 µg/mL. In the same order, the values of `Cc1nnc2ccc(S(=O)(=O)N(Cc3cccc(Cl)c3)c3ccc(F)cc3)cn12` [Compound 8g, N-(3-chlorobenzyl)-N-(4-fluorophenyl)-3-methyl-[1,2,4]triazolo[4,3-a]pyridine-6-sulfonamide] are 107 to 109 °C and greater than 64 µg/mL. In the same order, the values of `O=c1n(Cc2cccc(F)c2)nc2ccc(S(=O)(=O)N3CCSCC3)cn12` [Compound 13i, 2-(3-Fluorobenzyl)-6-(thiomorpholinosulfonyl)-[1,2,4]triazolo[4,3-a]pyridin-3(2H)-one] are 154 to 155 °C and greater than 64 µg/mL. Take `Cc1cccc(CN(c2ccc(F)cc2)S(=O)(=O)c2ccc3nnc(C)n3c2)c1` [Compound 8f, N-(4-fluorophenyl)-3-methyl-N-(3-methylbenzyl)-[1,2,4]triazolo[4,3-a]pyridine-6-sulfonamide]: the melting point lay within 104 to 105 °C. This compound also showed an IC50 in data set [1] greater than 64 µg/mL. Regarding `O=c1n(Cc2cccc(Cl)c2)nc2c(S(=O)(=O)N3CCCCC3)cccn12` [Compound 13a, 2-(3-Chlorobenzyl)-8-(piperidin-1-ylsulfonyl)-[1,2,4]triazolo[4,3-a]pyridin-3(2H)-one], the Solubility entry in data set [2] is “moderately soluble”. In data set [1], the IC50 is greater than 64 µg/mL. For the compound `Cc1nnc2ccc(S(=O)(=O)N(Cc3ccc(F)cc3)c3ccc(Cl)cc3)cn12` [Compound 8i, N-(4-chlorophenyl)-N-(4-fluorobenzyl)-3-methyl-[1,2,4]triazolo[4,3-a]pyridine-6-sulfonamide], the melting point lay in the range of 198 to 199 °C. The compound also displayed an IC50 in data set [1] greater than 64 µg/mL. For `O=S(=O)(c1cccn2c(SCc3cccc(Cl)c3)nnc12)N1CCCC1` [Compound 15d, 3-(3-Chlorobenzylthio)-8-(pyrrolidin-1-ylsulfonyl)-[1,2,4]triazolo[4,3-a]pyridine], in that order: 143 to 145 °C and greater than 64 µg/mL. In the case of `COc1ccc(CN(c2cc(C)cc(C)c2)S(=O)(=O)c2cccn3c(C)nnc23)cc1` [Compound 8c, N-(3,5-dimethylphenyl)-N-(4-methoxybenzyl)-3-methyl-[1,2,4]triazolo[4,3-a]pyridine-8-sulfonamide], in data set [1], the IC50 is greater than 64 µg/mL. `Cc1ccc(CSc2nnc3c(S(=O)(=O)N4CCCCC4)cccn23)cc1` [Compound 15c, 3-(4-Methylbenzylthio)-8-(piperidin-1-ylsulfonyl)-[1,2,4]triazolo[4,3-a]pyridine] registered a melting point of 155 to 156 °C. In addition, the IC50 in data set [1] is greater than 64 µg/mL. In turn, `Cc1nnc2ccc(S(=O)(=O)N(Cc3ccccc3F)c3cccc(Cl)c3)cn12` [Compound 8h, N-(3-chlorophenyl)-N-(2-fluorobenzyl)-3-methyl-[1,2,4]triazolo[4,3-a]pyridine-6-sulfonamide] yielded an IC50 in data set [1] greater than 64 µg/mL.

Consider `O=S(=O)(c1cccn2c(SCc3ccc(F)cc3)nnc12)N1CCCc2ccccc21` [Compound 15f, 1-(3-(4-Fluorobenzylthio)-[1,2,4]triazolo[4,3-a]pyridin-8-ylsulfonyl)-1,2,3,4-tetrahydroquinoline], for which the melting point was 113 to 115 °C. The IC50 in data set [1] is greater than 64 µg/mL. In the same order, the values of `O=S(=O)(c1cccn2cnnc12)N(Cc1cccc(Cl)c1)c1cc(F)cc(F)c1` [Compound 8a, N-(3-chlorobenzyl)-N-(3,5-difluorophenyl)-[1,2,4]triazolo[4,3-a]pyridine-8-sulfonamide] are 160 to 162 °C and greater than 64 µg/mL. Take `Cc1cc(C)cc(N(Cc2cc(C)ccc2C)S(=O)(=O)c2cccn3c(C)nnc23)c1` [Compound 8b, N-(2,5-dimethylbenzyl)-N-(3,5-dimethylphenyl)-3-methyl-[1,2,4]triazolo[4,3-a]pyridine-8-sulfonamide]: inhibition in data set [1] was half-maximal at 48.5 µg/mL (≈ 112 µM) (IC50).

As for `O=S(=O)(c1cccn2c(SCc3cccc(Br)c3)nnc12)N1CCCCC1` [Compound 15b, 3-(3-Bromobenzylthio)-8-(piperidin-1-ylsulfonyl)-[1,2,4]triazolo[4,3-a]pyridine], the melting point was 160 to 162 °C. The compound also gave an IC50 in data set [1] greater than 64 µg/mL.

As usually defined, the IC50 is the midpoint of a concentration-inhibition curve. A low value points to inhibition by little substance. The term melting point denotes the temperature of the solid-liquid transition.
